From ChEMBL document CHEMBL1201862, “PubChem BioAssay data set” (2004)
The source made the active and inactive calls.

How the values were obtained:
[1] = molecular target: T1, Histone-lysine N-methyltransferase NSD2 (Homo sapiens, UniProt O96028); format: biochemical
T1 sequence (O96028 whole entry): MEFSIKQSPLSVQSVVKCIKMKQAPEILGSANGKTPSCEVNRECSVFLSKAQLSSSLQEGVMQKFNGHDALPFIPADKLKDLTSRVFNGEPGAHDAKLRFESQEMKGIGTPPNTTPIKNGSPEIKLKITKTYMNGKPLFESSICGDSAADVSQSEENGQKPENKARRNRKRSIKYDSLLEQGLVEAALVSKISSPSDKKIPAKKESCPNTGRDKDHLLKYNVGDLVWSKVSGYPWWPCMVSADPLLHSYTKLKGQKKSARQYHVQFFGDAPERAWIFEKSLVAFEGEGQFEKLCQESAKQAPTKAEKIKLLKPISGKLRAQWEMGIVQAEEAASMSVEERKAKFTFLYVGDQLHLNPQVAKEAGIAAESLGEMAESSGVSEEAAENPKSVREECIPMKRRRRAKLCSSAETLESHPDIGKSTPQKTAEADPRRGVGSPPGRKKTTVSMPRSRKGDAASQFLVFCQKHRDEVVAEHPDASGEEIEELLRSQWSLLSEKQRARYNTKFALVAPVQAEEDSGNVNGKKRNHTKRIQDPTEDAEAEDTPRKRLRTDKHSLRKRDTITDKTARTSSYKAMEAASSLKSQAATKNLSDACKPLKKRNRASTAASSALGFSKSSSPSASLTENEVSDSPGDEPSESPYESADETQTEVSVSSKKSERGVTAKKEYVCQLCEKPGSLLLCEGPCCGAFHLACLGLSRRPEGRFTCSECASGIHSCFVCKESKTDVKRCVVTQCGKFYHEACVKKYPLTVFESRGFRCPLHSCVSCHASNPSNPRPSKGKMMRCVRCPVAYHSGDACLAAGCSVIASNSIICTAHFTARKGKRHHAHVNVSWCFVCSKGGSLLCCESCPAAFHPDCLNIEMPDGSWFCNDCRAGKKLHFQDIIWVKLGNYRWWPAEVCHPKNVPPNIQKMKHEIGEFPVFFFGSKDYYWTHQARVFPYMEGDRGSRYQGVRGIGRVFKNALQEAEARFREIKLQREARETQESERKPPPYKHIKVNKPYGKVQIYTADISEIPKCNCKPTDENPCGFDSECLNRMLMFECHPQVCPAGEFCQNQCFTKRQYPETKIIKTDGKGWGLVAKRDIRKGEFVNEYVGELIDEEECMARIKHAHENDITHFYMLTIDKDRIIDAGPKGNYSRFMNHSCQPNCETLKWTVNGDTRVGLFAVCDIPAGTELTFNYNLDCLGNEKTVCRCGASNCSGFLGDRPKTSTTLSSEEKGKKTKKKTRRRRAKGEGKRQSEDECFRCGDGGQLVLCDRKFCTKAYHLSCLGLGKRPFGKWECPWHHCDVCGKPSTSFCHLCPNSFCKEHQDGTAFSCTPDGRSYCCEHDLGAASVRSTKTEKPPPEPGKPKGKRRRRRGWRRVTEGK

[2] = HIV-1 AD8 envelope cell-cell fusion blockers – cherry-pick, dose response (AID 652062); format: functional, cell-based;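 note: luciferase signal from cell-cell fusion driven by HIV-1 clade B AD8 Env; potency is for inhibitors of fusion seen as a drop in luminescence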
[3] = intracellular Trypanosoma cruzi inhibitors in host cells – cell-based, plate reader, cherry-pick samples, set 3, dose response (AID 651818); format: functional;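 note: compounds incubated with infected cells for about four days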
[4] = molecular target: Induced myeloid leukemia cell differentiation protein Mcl-1 (Homo sapiens, UniProt Q07820); format: functional
Chain of Induced myeloid leukemia cell differentiation protein Mcl-1 (Q07820 whole entry): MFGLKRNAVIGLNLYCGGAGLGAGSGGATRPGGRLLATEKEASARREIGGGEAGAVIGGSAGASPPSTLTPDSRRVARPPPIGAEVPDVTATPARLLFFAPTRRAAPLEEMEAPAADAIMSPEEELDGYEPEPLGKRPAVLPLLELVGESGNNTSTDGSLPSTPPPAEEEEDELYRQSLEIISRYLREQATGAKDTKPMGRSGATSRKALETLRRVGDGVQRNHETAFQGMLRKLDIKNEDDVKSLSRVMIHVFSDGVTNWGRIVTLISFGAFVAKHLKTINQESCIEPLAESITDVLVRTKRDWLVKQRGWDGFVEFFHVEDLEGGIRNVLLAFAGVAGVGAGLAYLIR

[5] = Trypanosoma cruzi growth suppression in host cells – NIH3T3 host cells, beta-gal luminescence, confirmation (AID 2044); format: functional, cell-based;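 note: intracellular parasites grown in NIH/3T3 mouse fibroblasts as host cells; luminescent beta-galactosidase reporter signal from transgenic T. cruzi replicating inside host cells; inhibitors lower the luminescence signal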
[6] = NIH3T3 cell viability loss – ATP luminescence, mouse fibroblasts, counter-screen, dose response (AID 2010); format: functional, cell-based;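 note: cells exposed to compound for about 90 hours before reading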
INS1 = assay: INS-1E survival protection against cytokine death – cell-based, luminescence, retest, dose response (AID 449756); format: functional; conditions: Rattus norvegicus;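 note: cell death triggered by IL-1 beta plus TNF-alpha plus IFN-gamma mixture; protective hits raise ATP signal compared with cytokine alone wells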
Vero = assay: cells; format: functional; conditions: Chlorocebus sabaeus
[7] = Luminescence Cell-Based Dose Confirmation HTS to Identify Activators of 5'UTR Stem-Loop Driven Alpha-Synuclein mRNA Translation in H4 Neuroglioblastoma Cells. [Related pubchem assays: 1829 (Project Summary), 1814 (Primary HTS)]; format: functional
H4 = assay: Luminescence Cell-Based Dose Response HTS to Identify Activators of 5'UTR Stem-Loop Driven Prion Protein mRNA Translation in H4 Neuroglioblastoma Cells. [Related pubchem assays: 1829 (Project Summary), 1814 (Primary HTS)]; format: functional; conditions: Homo sapiens
[8] = Luminescence Cell-Based Dose Retest to Confirm Inhibitors of Cancer Stem Cells. [Related pubchem assays (depositor defined):AID2717, AID2721]; format: functional; conditions: Homo sapiens
Nonstructural protein 1 = Nonstructural protein 1 (Influenza A virus, UniProt Q194T2); format: functional, Influenza A virus (A/California/07/2009(H1N1))
Chain of Nonstructural protein 1 (Q194T2 whole entry): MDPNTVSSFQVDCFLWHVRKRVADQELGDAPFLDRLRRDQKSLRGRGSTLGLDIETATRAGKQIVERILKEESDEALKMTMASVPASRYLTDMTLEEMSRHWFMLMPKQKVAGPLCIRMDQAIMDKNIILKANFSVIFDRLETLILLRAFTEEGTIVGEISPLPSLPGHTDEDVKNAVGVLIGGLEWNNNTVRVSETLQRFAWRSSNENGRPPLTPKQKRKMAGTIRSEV

[9] = molecular target: T2, Replicative DNA helicase DnaB (Mycobacterium tuberculosis, UniProt P9WMR3); assay: DnaB intein splicing inhibitors, dose response, biochemical, cell-free fluorescence (AID 449749); format: functional
T2 sequence (P9WMR3 whole entry): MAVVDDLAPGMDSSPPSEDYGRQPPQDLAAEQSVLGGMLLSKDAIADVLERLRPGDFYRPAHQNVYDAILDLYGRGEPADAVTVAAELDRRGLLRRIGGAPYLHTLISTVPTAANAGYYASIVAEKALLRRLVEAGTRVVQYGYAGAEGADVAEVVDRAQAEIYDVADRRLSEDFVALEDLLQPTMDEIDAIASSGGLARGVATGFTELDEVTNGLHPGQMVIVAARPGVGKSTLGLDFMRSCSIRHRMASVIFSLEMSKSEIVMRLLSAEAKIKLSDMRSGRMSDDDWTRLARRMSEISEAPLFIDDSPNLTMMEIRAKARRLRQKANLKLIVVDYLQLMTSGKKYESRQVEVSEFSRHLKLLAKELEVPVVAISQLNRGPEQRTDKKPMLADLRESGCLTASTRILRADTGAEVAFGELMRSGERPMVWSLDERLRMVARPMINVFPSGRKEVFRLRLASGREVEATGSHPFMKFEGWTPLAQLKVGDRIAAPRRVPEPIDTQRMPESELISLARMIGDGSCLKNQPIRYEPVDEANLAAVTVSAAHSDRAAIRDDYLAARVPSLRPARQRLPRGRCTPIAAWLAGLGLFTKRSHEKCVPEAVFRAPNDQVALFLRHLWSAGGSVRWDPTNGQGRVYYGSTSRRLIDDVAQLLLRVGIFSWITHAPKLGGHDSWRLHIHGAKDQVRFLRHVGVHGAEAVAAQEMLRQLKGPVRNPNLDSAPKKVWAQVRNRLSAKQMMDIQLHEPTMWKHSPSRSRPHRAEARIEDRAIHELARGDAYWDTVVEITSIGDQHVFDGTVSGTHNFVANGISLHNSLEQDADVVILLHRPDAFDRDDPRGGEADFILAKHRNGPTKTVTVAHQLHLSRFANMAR

Protein RecA = molecular target: T3, Protein RecA (Mycobacterium tuberculosis, UniProt P9WHJ3); assay: Fluorescence Cell-Free Homogeneous Dose Retest to Identify Inhibitors of RecA-Intein Splicing Activity. [Related pubchem assays (depositor defined):AID2097, AID2223, AID489010, AID492950]; format: functional
T3 sequence (P9WHJ3 whole entry): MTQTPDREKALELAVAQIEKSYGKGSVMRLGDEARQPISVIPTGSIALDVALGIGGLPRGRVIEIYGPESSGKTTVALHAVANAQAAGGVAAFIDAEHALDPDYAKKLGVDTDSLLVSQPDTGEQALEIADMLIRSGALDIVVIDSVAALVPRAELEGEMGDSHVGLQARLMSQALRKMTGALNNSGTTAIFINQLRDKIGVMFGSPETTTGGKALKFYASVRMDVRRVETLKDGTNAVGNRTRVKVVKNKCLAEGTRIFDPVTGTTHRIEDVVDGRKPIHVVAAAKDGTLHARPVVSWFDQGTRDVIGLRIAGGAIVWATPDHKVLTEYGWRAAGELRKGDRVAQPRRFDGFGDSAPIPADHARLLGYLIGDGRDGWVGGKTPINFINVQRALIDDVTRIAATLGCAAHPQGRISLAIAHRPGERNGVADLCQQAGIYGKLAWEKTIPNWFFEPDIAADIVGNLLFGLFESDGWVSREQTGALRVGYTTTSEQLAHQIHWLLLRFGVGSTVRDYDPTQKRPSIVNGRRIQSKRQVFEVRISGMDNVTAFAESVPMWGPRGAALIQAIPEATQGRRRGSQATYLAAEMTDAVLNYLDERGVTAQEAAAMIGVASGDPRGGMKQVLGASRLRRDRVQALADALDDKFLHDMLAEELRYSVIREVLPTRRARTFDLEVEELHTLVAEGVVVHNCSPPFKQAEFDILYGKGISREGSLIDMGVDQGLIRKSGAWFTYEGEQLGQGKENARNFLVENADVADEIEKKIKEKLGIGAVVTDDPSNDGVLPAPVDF

[10] = test system: Streptococcus sp. 'group A'; assay: Streptococcus pyogenes SK(-)GAS viability under kanamycin – luminescence, BacTiterGlo, confirmation, counter-screen for streptokinase expression inhibitor project, dose response (AID 1900); format: functional, organism-based
Streptococcus = assay: GAS UMAA2166 growth inhibition – luminescence, BacTiterGlo, counter-screen for streptokinase expression inhibitor project, dose response (AID 1915); format: functional, organism-based;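 note: potency for reduction of bacterial viability or growth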
Cytochrome P450 2C19 = Cytochrome P450 2C19 (Homo sapiens, UniProt P33261); assay: Cytochrome panel assay with activity outcomes. Panel member name: p450-cyp2c19 Compounds with AC50 equal or less than 10 uM are considered active; format: functional; conditions: read-out: AC50
Chain of Cytochrome P450 2C19 (P33261 whole entry): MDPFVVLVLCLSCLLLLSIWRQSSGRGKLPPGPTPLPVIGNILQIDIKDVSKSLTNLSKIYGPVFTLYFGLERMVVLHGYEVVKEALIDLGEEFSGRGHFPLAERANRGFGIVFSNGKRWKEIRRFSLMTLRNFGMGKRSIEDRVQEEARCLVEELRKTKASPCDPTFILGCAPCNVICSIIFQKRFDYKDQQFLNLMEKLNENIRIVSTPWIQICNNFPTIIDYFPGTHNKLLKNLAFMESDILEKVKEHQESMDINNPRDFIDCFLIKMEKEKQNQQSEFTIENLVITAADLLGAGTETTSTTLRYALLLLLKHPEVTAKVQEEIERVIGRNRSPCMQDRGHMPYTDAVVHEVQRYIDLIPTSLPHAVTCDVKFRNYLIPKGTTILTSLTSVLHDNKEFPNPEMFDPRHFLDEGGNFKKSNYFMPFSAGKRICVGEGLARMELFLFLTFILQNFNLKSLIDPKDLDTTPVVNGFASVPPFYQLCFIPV

## CCN(CC)c1ccc(CN2CC=C(c3ccc(F)cc3)CC2)cc1
[1]
  AC50: > 20 µM (inactive)

## C#CCn1c(=O)c2c(ncn2C)n(C)c1=O
[2]
  AC50: 43.1 µM (active)

## Cc1noc(C)c1NC(=O)Nc1cccc2c1O[C@@H](CN(C)S(C)(=O)=O)[C@@H](C)CN([C@@H](C)CO)C2=O
[3]
  AC50: 1.01 µM (active)

## COc1ccc(C(=O)C[n+]2ccc(-c3nnc4n3CCCCC4)cc2)cc1
[4]
  IC50: > 54 µM (active)

## Cc1[nH]c2ccccc2c1CN1CCC(Cc2ccccc2)CC1
[5]
  EC50: 0.212 µM (active)
[6]
  EC50: 10.9 µM (active)
INS1
  AC50: 3.46 µM (active)
Vero
  CC50: > 25 µM (active)

## C[C@H](CO)N1C[C@H](C)[C@@H](CN(C)C(=O)Nc2cccc3ccccc23)Oc2c(NC(=O)Nc3ccc4c(c3)OCO4)cccc2C1=O
[3]
  AC50: 6.85 µM (active)

## C/C(=C\c1ccco1)C1Nc2cccc3cccc(c23)N1
[4]
  IC50: 8.61 µM (active)

## C[C@@H]1CN([C@@H](C)CO)C(=O)c2cccc(NC(=O)Nc3ccc(C(F)(F)F)cc3)c2O[C@@H]1CN(C)Cc1ccc(Oc2ccccc2)cc1
[3]
  AC50: 6.09 µM (active)

## CCCN1C(=O)S/C(=C/c2ccc(N3CCOCC3)o2)C1=O
Vero
  CC50: > 25 µM (active)

## COc1ccc(NC(=O)Nc2cccc3c2O[C@H](CN(C)Cc2ccc(C(=O)Nc4ccccc4N)cc2)[C@@H](C)CN([C@@H](C)CO)C3=O)cc1
[3]
  AC50: 1.92 µM (active)

## C[C@@H]1CCCCO[C@@H](CN(C)Cc2ccc(Cl)c(Cl)c2)[C@@H](C)CN([C@H](C)CO)C(=O)c2cc(NC(=O)Nc3ccc(F)cc3)ccc2O1
[3]
  AC50: 2.38 µM (active)

## N#C/C(=N\Nc1ccccc1)C(=N)N1CCCCCC1
[7]
  EC50: 0.132 µM (active)
H4
  EC50: > 120 µM (not active)

## C[C@H]1CN([C@@H](C)CO)C(=O)Cc2cc(NC(=O)Nc3ccc(C(F)(F)F)cc3)ccc2O[C@H]1CN(C)Cc1ccccc1
[3]
  AC50: 3.08 µM (active)

## Cc1cc([N+](=O)[O-])nn1CC(=O)N/N=C/c1ccc(O)cc1O
[8]
  AC50: 12.1 µM (active)
Nonstructural protein 1
  IC50: 14.2 µM (active)

## Cc1ccc(-n2nc(C)c3c2OC(N)=C(C#N)C3c2ccc(C)o2)cc1 (configuration not stated)
Nonstructural protein 1
  IC50: 24.9 µM (active)
[9]
  AC50: 5.9 µM (active)
Protein RecA
  EC50: 25.7 µM (inconclusive)

## C[C@@H]1CCCCO[C@H](CN(C)Cc2ccc(Cl)c(Cl)c2)[C@@H](C)CN([C@H](C)CO)C(=O)c2cc(NC(=O)Nc3ccc4c(c3)OCO4)ccc2O1
[3]
  AC50: 4.02 µM (active)

## O=c1c(/C=N/c2cc(O)nc(S)n2)coc2c1ccc1ccccc12
[10]
  EC50: 0.752 µM (active)
[4]
  IC50: 4.68 µM (active)
Streptococcus
  EC50: 20.3 µM (active)

## C[C@H](CO)N1C[C@H](C)[C@@H](CN(C)Cc2ccc(C(F)(F)F)cc2)Oc2c(NS(=O)(=O)c3ccccc3)cccc2C1=O
[3]
  AC50: 8.8 µM (active)

## C[C@H](CO)N1C[C@H](C)[C@@H](CN(C)Cc2ccccc2)Oc2c(NC(=O)CCCCCC(=O)Nc3ccccc3N)cccc2C1=O
[3]
  AC50: 3.24 µM (active)

## CCN1CCN(Cc2ccc(NC(=O)c3cc(NC(=O)N4CCNC4=O)cc(OC)c3)cc2C(F)(F)F)CC1
Vero
  CC50: > 25 µM (active)

## CC(=O)c1ccc(-n2c(CCC(=O)O)ccc2-c2cccs2)cc1
[4]
  IC50: 9.23 µM (not active)
Cytochrome P450 2C19
  AC50: 11.2 µM (inconclusive)

## C[C@@H]1CN([C@H](C)CO)C(=O)Cc2cc(NS(=O)(=O)c3ccc(Cl)cc3)ccc2O[C@H]1CN(C)Cc1ccc2c(c1)OCO2
[3]
  AC50: 3.53 µM (active)
